Experimental data from paper PMC5458211, “Mitochondrial VDAC1-based peptides: Attacking oncogenic properties in glioblastoma” (Oncotarget, 2017).

Columns and labels:
[1] = Blood-brain barrier crossing in the intracranial xenograft model; format: in vivo, mouse; settings: i.v.; concluded from intracranial tumor model
Description: B. U-87MG cells (2×10^5) were incubated for 12 h with the indicated concentrations of DMSO, Retro-Tf-D-LP4 peptide (Pep), or Retro-Tf-D-LP4 encapsulated in PLGA nanoparticles (PLGA-Pep). Samples of Retro-Tf-D-LP4 encapsulated in PLGA nanoparticles were centrifuged (15000g, 5 min) to separate the supernatant (Sup), containing free peptide, and the pellet, containing encapsulated Retro-Tf-D-LP4 peptide. Cell death was analyzed by PI staining and FACS analysis. C. Graphical representation of the orthotopic animal experiment. D. MRI imaging of brains 29 days post-intravenal treatment start with DMSO (1.05%), Retro-Tf-D-LP4 (10 mg/kg) encapsulated in PLGA nanoparticles or Tf-D-Retro-LP4 peptide (10 mg/Kg), as described in Materials and Methods available online in Supplemental information. E. Calculated tumor volumes after 20 (dark grey bars) and 29 (light grey bars) days post-treatment start. Results = mean ± SE (n = 6) (* p<0.05, *** p<0.001). F. Kaplan-Meier survival curves showing statistically significant differences in survival curves between the PBS/DMSO and Retro-Tf-D-LP4 treated mice. […]
For the intracranial-orthotopic xenograft mouse model, U-87MG cells (8×10^4) were engrafted into a nude mouse brain using a stereotactic device. […] Tumor volume was analyzed using VivoQuant 2.10 software.

[2] = tested on: apoptosis-related proteins; assay: Expression of apoptosis-related proteins in treated tumors (IHC, immunoblot); format: in vivo, human U-87MG in nude mice; settings: treated tumors vs PBS/DMSO
Description: Red color indicates PI nuclear staining and green color TUNEL staining. B. Representative sections from PBS/DMSO- and peptide-TTs IHC stained for p53, Cyto c, AIF, Caspase 3 and Smac/Diablo and then hematoxylin-stained and visualized by microscopy. C. Tissue lysates obtained from controls and several Tf-D-LP4-TTs were immunoblotted for p53, Caspase 8, Cyto c, Smac/Diablo, Caspase 3 and Bcl-2. D. Quantitative analysis of immunoblots is shown (n=2-4).
Formalin-fixed, paraffin-embedded sections of control and peptide-TTs were hematoxylin-eosin stained, probed with appropriate antibodies via IHC staining or immunoblotting of cells and tissue extracts. […]
HBSS solution. Cells or tumor tissue were lysed using lysis buffer (50 mM Tris-HCl, pH 7.5, 150 mM NaCl, 1
Xenograft and intracranial-orthotopic mouse mM EDTA, 1.5 mM MgCl2, 10% glycerol, 1% Triton models X-100, supplemented with a protease inhibitor cocktail
(Calbiochem, UK). Cell lysates were then centrifuged at U-87MG glioblastoma cells (3 x106) were inoculated 600xg (10 min at 4°C) and samples (10-40 μg of protein) s.c. into the hind leg ﬂanks of athymic eight-week old were subjected to SDS-PAGE and immunoblotting male nude mice (Envigo). Thirteen days post-inoculation, using various primary antibodies (sources and dilutions tumor volume was measured and calculated (100-130 as detailed in supplementary Table 2), followed by mm3) and mice were randomized into three groups (5 the appropriate HRP-conjugated secondary antibodies mice/group). Each treatment substance was injected into (i.e., anti-mouse, anti-rabbit or anti-goat). Blots the established s,c. tumors using PBS containing 0.26% were developed using enhanced chemiluminescence DMSO or peptide in PBS, 0.26% DMSO/20 μM). The (Biological Industries). Band intensities were analyzed xenografts were injected 20 µl per tumor (2 points) every by densitometry using Multi Gauge software (Fujifilm) two days. Beginning on the day of inoculation, mouse and the values were normalized to the intensities of the weight and tumor volume were monitored twice a week appropriate β-actin signal that served as a loading control. for a period of 23 days using a digital caliper. At the end of the experiments, the mice were sacrificed, tumors were IHC of tumor tissue sections excised and ex vivo weight was determined. Half of each tumor was either fixed in 4% buffered formaldehyde, IHC staining was performed on 5 μm-thick paraffin-embedded and processed for IHC or frozen in formalin-fixed and paraffin-embedded tumor tissue liquid nitrogen for later immunoblot analysis. sections. The sections were deparaffinized by placing To generate an intracranial-orthotopic mouse model, the slides at 60°C for 1 h and using xylene. […]
(Stoelting, Wood Dale, IL). A middle incision was made c, cytochrome c oxidase subunit IVc, GAPDH, Glut1, on the skull and a burr hole was introduced 0.5 mm HK-II, Klf4, LDH, Nestin, NGFR, P53, SMAC/Diablo, anterior to the bregma and 2.5 mm lateral to the midline Sox2, S100b, VDAC1) was performed in 0.01 M citrate using a drill (Stoelting). A 31-gauge needle loaded with buffer (pH 6.0). For CD31, HK-I and Ki-67, antigen 10 µL PBS was used to deliver tumor cells. The needle retrieval was performed in 10 mM Tris-EDTA (pH 9) and tip was inserted into the brain 3 mm deep, relative to the 0.5 M Tris (pH 10), for 30 minutes each at 95-98°C. After skull surface, and maintained at this depth for 2 minutes washing sections in PBS containing 0.1% Triton-X100 before injection of tumor cells. Under sterile conditions, (pH 7.4), non-specific antibody binding was reduced by a 3 µL solution containing U-87MG (8×104) cells was incubating the sections in 10% normal goat serum for 2 injected into the brain parenchyma over a period of […]. After decanting excess serum, sections were incubated
(1 picture or pasted object on this page, not shown here)

SMILES	crossing of the blood-brain barrier / reaching the brain [1]	Bcl-2 level [2]	Caspase 3 expression increase [2]	Caspase 8 expression increase [2]	Cyto c expression increase [2]	SMAC/DIABLO expression [2]	p53 expression increase [2]
CC[C@H](C)[C@H](NC(=O)[C@H](Cc1ccc(O)cc1)NC(=O)[C@@H]1CCCN1C(=O)[C@H](CCCNC(=N)N)NC(=O)[C@H](Cc1c[nH]cn1)NC(=O)[C@H](CO)NC(=O)[C@H](Cc1c[nH]c2ccccc12)NC(=O)[C@@H](NC(=O)[C@H](Cc1c[nH]c2ccccc12)NC(=O)[C@H](CCC(=O)O)NC(=O)[C@@H](CCCCN)NC(=O)[C@@H](CCCCN)NC(=O)[C@@H](CC(C)C)NC(=O)[C@@H](CCC(=O)O)NC(=O)[C@H](NC(=O)[C@@H](C)NC(=O)[C@H](NC(=O)[C@@H](CC(N)=O)NC(=O)[C@@H](CC(C)C)NC(=O)[C@@H](C)NC(=O)[C@@H](Cc1c[nH]c2ccccc12)NC(=O)[C@H](NC(=O)[C@@H](C)NC(=O)CNC(=O)[C@@H](CC(N)=O)NC(=O)[C@@H](CO)NC(=O)[C@@H](CC(N)=O)NC(=O)[C@H](CCCCN)NC(=O)[C@H](Cc1c[nH]c2ccccc12)NC(=O)[C@@H](NC(=O)[C@H](Cc1c[nH]c2ccccc12)NC(=O)[C@@H](N)CCCCN)[C@@H](C)O)[C@H](C)O)C(C)C)[C@H](C)O)[C@@H](C)O)C(=O)N[C@@H](C)C(=O)N[C@@H](Cc1c[nH]cn1)C(=O)O [Retro-Tf-D-LP4]	able to cross the blood-brain barrier in vivo	–	–	–	–	–	–
CC[C@H](C)[C@H](NC(=O)[C@H](C)NC(=O)[C@@H](N)Cc1c[nH]cn1)C(=O)N[C@@H](Cc1ccc(O)cc1)C(=O)N1CCC[C@H]1C(=O)N[C@@H](CCCNC(=N)N)C(=O)N[C@@H](Cc1c[nH]cn1)C(=O)N[C@@H](CO)C(=O)N[C@@H](Cc1c[nH]c2ccccc12)C(=O)N[C@H](C(=O)N[C@@H](Cc1c[nH]c2ccccc12)C(=O)N[C@@H](CCC(=O)O)C(=O)N[C@H](CCCCN)C(=O)N[C@H](CCCCN)C(=O)N[C@H](CC(C)C)C(=O)N[C@H](CCC(=O)O)C(=O)N[C@@H](C(=O)N[C@H](C)C(=O)N[C@@H](C(=O)N[C@H](CC(N)=O)C(=O)N[C@H](CC(C)C)C(=O)N[C@H](C)C(=O)N[C@H](Cc1c[nH]c2ccccc12)C(=O)N[C@@H](C(=O)N[C@H](C)C(=O)NCC(=O)N[C@H](CC(N)=O)C(=O)N[C@H](CO)C(=O)N[C@H](CC(N)=O)C(=O)N[C@@H](CCCCN)C(=O)N[C@@H](Cc1c[nH]c2ccccc12)C(=O)N[C@H](C(=O)N[C@@H](Cc1c[nH]c2ccccc12)C(=O)N[C@@H](CCCCN)C(=O)O)[C@@H](C)O)[C@H](C)O)C(C)C)[C@H](C)O)[C@@H](C)O [Tf-D-LP4]	–	almost undetectable	> 5 fold	about 20 fold	over 10 fold	much higher	over 12 fold
